According to ChEMBL document CHEMBL1275539 (2008):
In brackets after ≈: the same amount, converted by molar mass.

Columns and labels:
Type in all cases: functional
Streptococcus pneumoniae [1] = test: Antibacterial activity against penicillin-nonsusceptible Streptococcus pneumoniae assessed as percent susceptible isolates by agar dilution method
Streptococcus pneumoniae [2] = test: Antibacterial activity against penicillin-nonsusceptible Streptococcus pneumoniae isolate by agar dilution method
Streptococcus pneumoniae [3] = test: Antibacterial activity against levofloxacin-resistant Streptococcus pneumoniae assessed as percent susceptible isolates by agar dilution method
Streptococcus pneumoniae [4] = test: Antibacterial activity against levofloxacin-resistant Streptococcus pneumoniae isolate by agar dilution method
Streptococcus pneumoniae [5] = test: Antibacterial activity against cefotaxime-intermediate Streptococcus pneumoniae isolate by agar dilution method
Streptococcus pneumoniae [6] = test: Antibacterial activity against cefotaxime-resistant Streptococcus pneumoniae isolate by agar dilution method
Streptococcus pneumoniae [7] = test: Antibacterial activity against penicillin-susceptible Streptococcus pneumoniae assessed as percent susceptible isolates by agar dilution method
Streptococcus pneumoniae [8] = test: Antibacterial activity against erythromycin-resistant Streptococcus pneumoniae isolate by agar dilution method
Streptococcus pneumoniae [9] = test: Antibacterial activity against penicillin-susceptible Streptococcus pneumoniae isolate by agar dilution method
Streptococcus pneumoniae [10] = test: Antibacterial activity against amoxicillin-resistant Streptococcus pneumoniae isolate by agar dilution method
Streptococcus pneumoniae [11] = test: Antibacterial activity against cefotaxime-resistant Streptococcus pneumoniae assessed as percent susceptible isolates by agar dilution method
Streptococcus pneumoniae [12] = test: Antibacterial activity against amoxicillin-intermediate Streptococcus pneumoniae assessed as percent susceptible isolates by agar dilution method
Streptococcus pneumoniae [13] = test: Antibacterial activity against erythromycin-resistant Streptococcus pneumoniae assessed as percent susceptible isolates by agar dilution method
Streptococcus pneumoniae [14] = test: Antibacterial activity against amoxicillin-intermediate Streptococcus pneumoniae isolate by agar dilution method
Streptococcus pneumoniae [15] = test: Antibacterial activity against cefotaxime-intermediate Streptococcus pneumoniae assessed as percent susceptible isolates by agar dilution method
Streptococcus pneumoniae [16] = test: Antibacterial activity against amoxicillin-resistant Streptococcus pneumoniae assessed as percent susceptible isolates by agar dilution method

SMILES | Activity (Streptococcus pneumoniae [1]) | MIC50 (Streptococcus pneumoniae [2]) | MIC90 (Streptococcus pneumoniae [2]) | Activity (Streptococcus pneumoniae [3]) | MIC50 (Streptococcus pneumoniae [4]) | MIC90 (Streptococcus pneumoniae [4]) | MIC50 (Streptococcus pneumoniae [5]) | MIC90 (Streptococcus pneumoniae [5]) | MIC50 (Streptococcus pneumoniae [6]) | MIC90 (Streptococcus pneumoniae [6]) | MIC50 (Streptococcus pneumoniae [8]) | MIC90 (Streptococcus pneumoniae [8]) | MIC50 (Streptococcus pneumoniae [9]) | MIC90 (Streptococcus pneumoniae [9]) | MIC50 (Streptococcus pneumoniae [10]) | MIC90 (Streptococcus pneumoniae [10]) | Activity (Streptococcus pneumoniae [13]) | MIC50 (Streptococcus pneumoniae [14]) | MIC90 (Streptococcus pneumoniae [14]) | Activity (Streptococcus pneumoniae [15]) | other results
CC1(C)S[C@@H]2[C@H](NC(=O)[C@H](N)c3ccc(O)cc3)C(=O)N2[C@H]1C(=O)O [AMOXICILLIN] | 13.3% | 8 µg/mL (≈ 21.9 µM) | ≥ 16 µg/mL | 73.7% | ≤ 0.06 µg/mL | 8 µg/mL (≈ 21.9 µM) | 4 µg/mL (≈ 10.9 µM) | 16 µg/mL (≈ 43.8 µM) | 8 µg/mL (≈ 21.9 µM) | 16 µg/mL (≈ 43.8 µM) | 2 µg/mL (≈ 5.47 µM) | 8 µg/mL (≈ 21.9 µM) | 2 µg/mL (≈ 5.47 µM) | 8 µg/mL (≈ 21.9 µM) | 8 µg/mL (≈ 21.9 µM) | 16 µg/mL (≈ 43.8 µM) | 62.2% | 4 µg/mL (≈ 10.9 µM) | 4 µg/mL (≈ 10.9 µM) | 30.6% | Activity (Streptococcus pneumoniae [7]): 66.7%; Activity (Streptococcus pneumoniae [11]): 6.3%; Activity (Streptococcus pneumoniae [12]): 0%
CC1(C)S[C@@H]2[C@H](NC(=O)Cc3ccccc3)C(=O)N2[C@H]1C(=O)O [PENICILLIN G] | 0% | 4 µg/mL (≈ 12 µM) | 4 µg/mL (≈ 12 µM) | 98% | 0.06 µg/mL (≈ 0.179 µM) | 2 µg/mL (≈ 5.98 µM) | 2 µg/mL (≈ 5.98 µM) | 4 µg/mL (≈ 12 µM) | 4 µg/mL (≈ 12 µM) | 8 µg/mL (≈ 23.9 µM) | 1 µg/mL (≈ 2.99 µM) | 2 µg/mL (≈ 5.98 µM) | 1 µg/mL (≈ 2.99 µM) | 2 µg/mL (≈ 5.98 µM) | 2 µg/mL (≈ 5.98 µM) | 4 µg/mL (≈ 12 µM) | 93.5% | 2 µg/mL (≈ 5.98 µM) | 2 µg/mL (≈ 5.98 µM) | 76.4% | Activity (Streptococcus pneumoniae [16]): 71.5%; Activity (Streptococcus pneumoniae [7]): 100%; Activity (Streptococcus pneumoniae [11]): 31.3%; Activity (Streptococcus pneumoniae [12]): 94.1%
CO/N=C(\C(=O)N[C@@H]1C(=O)N2C(C(=O)O)=C(COC(N)=O)CS[C@H]12)c1ccco1 [CEFUROXIME] | 0% | 8 µg/mL (≈ 18.9 µM) | 16 µg/mL (≈ 37.7 µM) | 55.3% | 0.25 µg/mL (≈ 0.589 µM) | 8 µg/mL (≈ 18.9 µM) | 8 µg/mL (≈ 18.9 µM) | 16 µg/mL (≈ 37.7 µM) | 16 µg/mL (≈ 37.7 µM) | ≥ 32 µg/mL | 4 µg/mL (≈ 9.43 µM) | 8 µg/mL (≈ 18.9 µM) | 4 µg/mL (≈ 9.43 µM) | 8 µg/mL (≈ 18.9 µM) | 8 µg/mL (≈ 18.9 µM) | 16 µg/mL (≈ 37.7 µM) | 26.8% | 4 µg/mL (≈ 9.43 µM) | 16 µg/mL (≈ 37.7 µM) | 0% | Activity (Streptococcus pneumoniae [7]): 31.6%; Activity (Streptococcus pneumoniae [12]): 0%
CC1(C)S[C@@H]2[C@H](NC(=O)[C@H](N)c3ccccc3)C(=O)N2[C@H]1C(=O)O [AMPICILLIN] |  | 8 µg/mL (≈ 22.9 µM) | ≥ 16 µg/mL |  | 0.12 µg/mL (≈ 0.343 µM) | 8 µg/mL (≈ 22.9 µM) | 8 µg/mL (≈ 22.9 µM) | ≥ 16 µg/mL | 8 µg/mL (≈ 22.9 µM) |  | 4 µg/mL (≈ 11.4 µM) | 8 µg/mL (≈ 22.9 µM) | 2 µg/mL (≈ 5.72 µM) | 8 µg/mL (≈ 22.9 µM) | 8 µg/mL (≈ 22.9 µM) |  |  | 4 µg/mL (≈ 11.4 µM) | 8 µg/mL (≈ 22.9 µM) |  | 
CO/N=C(\C(=O)N[C@@H]1C(=O)N2C(C(=O)O)=C(CSc3nc(=O)c(O)nn3C)CS[C@H]12)c1csc(N)n1 [CEFTRIAXONE] | 83.3% | 1 µg/mL (≈ 1.8 µM) | 2 µg/mL (≈ 3.61 µM) | 99.3% | 0.06 µg/mL (≈ 0.108 µM) | 1 µg/mL (≈ 1.8 µM) | 1 µg/mL (≈ 1.8 µM) | 1 µg/mL (≈ 1.8 µM) | 2 µg/mL (≈ 3.61 µM) | 4 µg/mL (≈ 7.21 µM) | 0.5 µg/mL (≈ 0.902 µM) | 1 µg/mL (≈ 1.8 µM) | 0.5 µg/mL (≈ 0.902 µM) | 1 µg/mL (≈ 1.8 µM) | 1 µg/mL (≈ 1.8 µM) | 1 µg/mL (≈ 1.8 µM) | 97.1% | 1 µg/mL (≈ 1.8 µM) | 1 µg/mL (≈ 1.8 µM) | 97.2% | Activity (Streptococcus pneumoniae [16]): 95.2%; Activity (Streptococcus pneumoniae [7]): 98.8%; Activity (Streptococcus pneumoniae [11]): 31.3%; Activity (Streptococcus pneumoniae [12]): 95.3%
C[C@H]1COc2c(N3CCN(C)CC3)c(F)cc3c(=O)c(C(=O)O)cn1c23.C[C@H]1COc2c(N3CCN(C)CC3)c(F)cc3c(=O)c(C(=O)O)cn1c23.O [LEVOFLOXACIN] | 95% | ≤ 1 µg/mL | ≤ 1 µg/mL | 0% | 16 µg/mL | ≥ 32 µg/mL | ≤ 1 µg/mL | 1 µg/mL |  | 1 µg/mL |  | 16 µg/mL |  |  | < 1 µg/mL | 16 µg/mL | 72% | ≤ 1 µg/mL | 16 µg/mL | 97.2% | Activity (Streptococcus pneumoniae [16]): 86.7%; Activity (Streptococcus pneumoniae [11]): 93.8%
CC[C@H]1OC(=O)[C@H](C)[C@@H](O[C@H]2C[C@@](C)(OC)[C@@H](O)[C@H](C)O2)[C@H](C)[C@@H](O[C@@H]2O[C@H](C)C[C@H](N(C)C)[C@H]2O)[C@](C)(O)C[C@@H](C)C(=O)[C@H](C)[C@@H](O)[C@]1(C)O [ERYTHROMYCIN] | 63.3% | ≤ 0.12 µg/mL | ≥ 32 µg/mL | 40.8% |  |  | 0.25 µg/mL (≈ 0.341 µM) | ≥ 32 µg/mL |  |  |  |  |  |  | < 0.12 µg/mL |  | 0% | ≥ 32 µg/mL | ≥ 32 µg/mL | 50% | Activity (Streptococcus pneumoniae [16]): 58.2%; Activity (Streptococcus pneumoniae [11]): 62.5%; Activity (Streptococcus pneumoniae [12]): 30.6%
CO/N=C(\C(=O)N[C@@H]1C(=O)N2C(C(=O)O)=C(COC(C)=O)CS[C@H]12)c1csc(N)n1 [CEFOTAXIME] | 25% | 2 µg/mL (≈ 4.39 µM) | 4 µg/mL (≈ 8.78 µM) |  | 0.06 µg/mL (≈ 0.132 µM) | 1 µg/mL (≈ 2.2 µM) | 2 µg/mL (≈ 4.39 µM) | 2 µg/mL (≈ 4.39 µM) | 4 µg/mL (≈ 8.78 µM) | 8 µg/mL (≈ 17.6 µM) | 1 µg/mL (≈ 2.2 µM) | 2 µg/mL (≈ 4.39 µM) | 1 µg/mL (≈ 2.2 µM) | 2 µg/mL (≈ 4.39 µM) | 2 µg/mL (≈ 4.39 µM) | 2 µg/mL (≈ 4.39 µM) | 77% | 1 µg/mL (≈ 2.2 µM) | 2 µg/mL (≈ 4.39 µM) | 0% | Activity (Streptococcus pneumoniae [16]): 49.7%; Activity (Streptococcus pneumoniae [7]): 80.7%; Activity (Streptococcus pneumoniae [12]): 62.4%
CCO/N=C(\C(=O)N[C@@H]1C(=O)N2C(C(=O)[O-])=C(Sc3nc(-c4cc[n+](C)cc4)cs3)CS[C@H]12)c1nsc(NP(=O)(O)O)n1 [CEFTAROLINE FOSAMIL] |  | 0.12 µg/mL (≈ 0.175 µM) | 0.25 µg/mL (≈ 0.365 µM) |  | 0.03 µg/mL (≈ 0.0438 µM) | 0.12 µg/mL (≈ 0.175 µM) | 0.12 µg/mL (≈ 0.175 µM) | 0.25 µg/mL (≈ 0.365 µM) | 0.25 µg/mL (≈ 0.365 µM) | 0.25 µg/mL (≈ 0.365 µM) | 0.12 µg/mL (≈ 0.175 µM) | 0.25 µg/mL (≈ 0.365 µM) | 0.12 µg/mL (≈ 0.175 µM) | 0.12 µg/mL (≈ 0.175 µM) | 0.12 µg/mL (≈ 0.175 µM) | 0.25 µg/mL (≈ 0.365 µM) |  | 0.12 µg/mL (≈ 0.175 µM) | 0.25 µg/mL (≈ 0.365 µM) |  | 
CO/N=C(\C(=O)N[C@@H]1C(=O)N2C(C(=O)[O-])=C(C[N+]3(C)CCCC3)CS[C@H]12)c1csc(N)n1 | 8.3% | 2 µg/mL (≈ 4.16 µM) | 4 µg/mL (≈ 8.32 µM) | 82.9% | 0.25 µg/mL (≈ 0.52 µM) | 2 µg/mL (≈ 4.16 µM) | 2 µg/mL (≈ 4.16 µM) | 2 µg/mL (≈ 4.16 µM) | 2 µg/mL (≈ 4.16 µM) | 4 µg/mL (≈ 8.32 µM) | 1 µg/mL (≈ 2.08 µM) | 2 µg/mL (≈ 4.16 µM) | 1 µg/mL (≈ 2.08 µM) | 2 µg/mL (≈ 4.16 µM) | 2 µg/mL (≈ 4.16 µM) | 8 µg/mL (≈ 16.6 µM) | 64.9% | 2 µg/mL (≈ 4.16 µM) | 2 µg/mL (≈ 4.16 µM) | 29.9% | Activity (Streptococcus pneumoniae [16]): 16.4%; Activity (Streptococcus pneumoniae [7]): 66.4%; Activity (Streptococcus pneumoniae [11]): 12.5%; Activity (Streptococcus pneumoniae [12]): 40%
